What was measured:
[1] = Antiatherogenic action on rabbits: carotid atheromas induced by electrical stimulation plus cholesterol-rich diet, 28 days; format: in vivo, male rabbits; details: rabbit, in vivo; rabbits, oral part of the daily dose (given with s.c. doses); read-out: Highest tolerated daily dose, oral
Protocol: (§1) Local atheromas are induced by the method of E. Betz and W. Schlote (Basic Res. Cardiol. 1979, 74, 10-20) by electrical stimulation of the carotid artery while, at the same time, feeding a cholesterol-rich diet (2%). At the end of the test period, the atheromas formed under the anode of the stimulating electrodes are removed and their size is determined histologically. Used as a measure of the size of the atheromas is the maximum number of their cell layers determined microscopically from serial sections. The extent of the antiarteriosclerotic action is established by comparison with untreated control animals. Verapamil and gallopamil are used as comparative substances.

[2] = tested on: atheromas (carotid artery); experiment: as above; format: in vivo, male rabbits; details: for Maximum number of cell layers in the atheromas / Maximum number of cell layers in the atheromas, % change: 28 days; for Maximum number of cell layers in the atheromas, % change: vs untreated control; for Action against arteriosclerosis (in words): general statement; for Inhibition of the development of atheromas (in words): compared with verapamil
Protocol: as §1

[3] = rabbits, highest tolerated daily dose 2 × 0.215 mg/kg s.c. + 4.64 mg/kg oral
[4] = rabbits, daily dose 2 × 1.0 mg/kg s.c. + 21.5 mg/kg oral, verapamil, nor-gallopamil *P < 0.05, nor-verapamil P = 0.682
[5] = rabbits, daily dose 2 × 1.0 mg/kg s.c. + 21.5 mg/kg oral

## COc1ccc(CCN(C)CCCC(C#N)(c2cc(OC)c(OC)c(OC)c2)C(C)C)cc1OC (centres unmarked) [Gallopamil, 5-[N-(3,4-dimethoxyphenethyl)-N-methylamino]-2-(3,4,5-trimethoxyphenyl]-2-isopropyl-valeronitrile]
[1]
  MTD at 672 h: 4.64 mg/kg
[2]; rabbits, at the highest tolerated daily dose
  Antiatherogenic effect (in words): no antiatherogenic effect
[2]; [3]
  Maximum number of cell layers in the atheromas: 15 ± 0.99
  Maximum number of cell layers in the atheromas, % change: +7.1%

## COc1ccc(CCNCCCC(C#N)(c2cc(OC)c(OC)c(OC)c2)C(C)C)cc1OC (centres unmarked) [Nor-gallopamil]
[2]
  Action against arteriosclerosis (in words): very good action against arteriosclerosis
[2]; rabbits
  Inhibition of the development of atheromas (in words): inhibit the development of atheromas to about the same extent as verapamil
[2]; [4]
  Maximum number of cell layers in the atheromas: 12 ± 1.3
[2]; [5]
  Maximum number of cell layers in the atheromas, % change: -44%

## COc1ccc(CCNCCCC(C#N)(c2ccc(OC)c(OC)c2)C(C)C)cc1OC (centres unmarked) [Nor-verapamil, 5-[N-(3,4-dimethoxyphenethyl)-amino]-2-(3,4-dimethoxyphenyl)-2-isopropyl-valeronitrile]
[2]
  Action against arteriosclerosis (in words): very good action against arteriosclerosis
[2]; rabbits
  Inhibition of the development of atheromas (in words): inhibit the development of atheromas to about the same extent as verapamil
[2]; [4]
  Maximum number of cell layers in the atheromas: 8.1 ± 1.3
[2]; [5]
  Maximum number of cell layers in the atheromas, % change: -40%

## COc1ccc(CCN(C)CCCC(C#N)(c2ccc(OC)c(OC)c2)C(C)C)cc1OC (centres unmarked) [Verapamil, 5-[N-(3,4-dimethoxyphenethyl)-N-methylamino]-2-(3,4-dimethoxyphenyl)-2-isopropyl-valeronitrile]
[2]; [4]
  Maximum number of cell layers in the atheromas: 3.8 ± 0.37
[2]; [5]
  Maximum number of cell layers in the atheromas, % change: -51%

— patent US5342853A, “Method of using nor-verapamil and nor-gallopamil as anti-arteriosclerotics” (priority 1989, dated 1994)
